Measurements from paper PMC13114161 (Antibiotics, 2026).

What was measured:
Assay type in all cases: cell-based, Pseudomonas aeruginosa
P. aeruginosa DA7232 = test: Levofloxacin accumulation assay; details: vs vehicle-treated controls
Protocol: The bacterial culture samples were treated on ice for 15 min, centrifuged, washed with PBSMG (1X PBS, 1 mM MgCl2, 100 mM glucose) and then resuspended in 1 mL of glycine-HCl buffer (pH 3.0) overnight for cell lysis, followed by centrifugation. The fluorescence of 100 µL of supernatant was read at 490 nm following a 355 nm excitation in a SpectraMax iD5 spectrophotometer (Molecular Devices, San Jose, CA, USA).

P. aeruginosa AR-0232 = test: Time-kill study; details: levofloxacin 1X-MIC + TXA11114, by 24 h
Protocol: (§1) Time-kill studies were carried out as described previously with the following changes.

P. aeruginosa ATCC 27853 = test: Time-kill study; details: levofloxacin 1X-MIC + TXA11114
Protocol: as §1

With `NCC(F)C[C@@H](N)CNC(=O)c1cc2ccc(-c3ccc(F)cc3)cc2[nH]1` (stereo partly drawn) [TXA11114, N-((2R)-2,5-diamino-4-fluoropentyl)-6-(4-fluorophenyl)-1H-indole-2-carboxamide] the Intracellular levofloxacin accumulation (P. aeruginosa DA7232) was “marked increase in intracellular levofloxacin accumulation”, the “Reduction in time-kill with levofloxacin” value (P. aeruginosa AR-0232) was ≥ 3 log10 and the “Reduction in time-kill with levofloxacin” value (P. aeruginosa ATCC 27853) was “more modest but reproducible reductions”.
